Results published in patent US20220233556A1, “COMPOSITIONS AND METHODS FOR TREATING OPHTHALMIC CONDITIONS” (Medicon Pharmaceuticals, Inc., priority 2017, published 2022).

Columns and labels:
[1] = Ocular PK study of PS nanoparticles (mPEG-PLA), topical eye drops; format: in vivo, New Zealand white rabbits; parameters: AUC(0-t) / AUC0-16h, cornea / AUC0-16h, conjunctiva: concentration or dose not given beside the values; conditions: PS and its metabolites
Protocol: Composition: ˜3.0-3.5% PS, 96.5˜97% methoxy poly(ethylene glycol)-poly(lactide) (mPEG-PLA).
Preparation Method: Oil phase: 150 mg of PS and 1 g of PEG-PLA (Akina, Inc) were dissolved in 20 mL dichloromethane (DCM). Water phase: 365 mg of sodium cholate were dissolved in 60 ml of purified water. 5 mL of the oil phase was gently added into 15 mL of the water phase in a 50 mL Eppendorf conical tube. To create an emulsion, we used robe sonication for 2 min at 75% output (Branson 150, Fisher Scientific™, USA); the watt output was 12-13. The emulsion was transferred into a 100 mL beaker and stirred overnight at 600 rpm in a chemical hood until the DCM was fully evaporated. This was followed by centrifugation at 14,000 rpm for 1 h (Dupont, RC-5C). Then, the supernatant was transferred to another tube into which 3 mL of PBS were added to resuspend the nanoparticles. The nanoparticle solution was centrifuged for 6-7 seconds to remove aggregates. This supernatant was the final preparation.
Ocular PK study: PS formulated in nanoparticles as above was administered topically as eye drops to New Zealand white rabbits. The biodistribution of PS in ocular tissues at the indicated time points post administration was determined by HPLC.

[2] = Rabbit ocular PK study of PS emulsion (2% PS); format: in vivo, New Zealand rabbits; conditions: 2% PS emulsion, three 25 μL eye drops; PS and its metabolites
Protocol: A formulation includes 2% PS; 5% Propylene glycol, 10% Mineral oil, 4% Tween 60, 4% Tween 80, 10% (2-hydroxypropyl)-β-cyclodextrin (HP-β-CD). Preparation method (2 mL scale): Oil phase: weight PS into glass vial, add propylene glycol, stir at 50° C. to obtain a clear solution. Then add mineral oil, stir to obtain a clear solution. Water phase: Dissolve HP-β-CD, […] and Tween 80 into water. Add water phase into oil phase, probe-sonicate for 5 sec, 8 times, with 5 sec intervals. Resultant emulsion is filtrated through 0.22 μm filter.
Rabbit ocular pharmacokinetic (PK) study: PS was administered to New Zealand rabbits topically to the eye; as three 25 μL eye drops, 5 min apart. Rabbits were euthanized at eight specified time points between 0.25 to 16 h, ocular tissues were dissected and PS was extracted with acetonitrile and its tissue levels as well as those of its metabolites were determined by HPLC as described (Xie G. et al., Br J Pharmacol 165:2′52-2166; 2012).

[3] = system: corneal sensitivity; test: Corneal touch threshold (CTT) assay, Cochet-Bonnet aesthesiometer; format: in vivo, rabbits; conditions: commercially available form, one eye drop
Protocol: FIGS. 10A and 10B illustrate the ocular analgesic effect of PS. FIG. 10A: One drop of PS 0.5%, vehicle, or lidocaine was applied to one eye of rabbits (n=4/group) and the corneal touch threshold (CTT) was determined using an Eshesiometer. Vehicle had no effect on CTT (not shown; overlaps with the 0 value horizontal line). Values=mean±SEM. FIG. 10B: PS 0.5% in formulations differing in pH as indicated produced different analgesic responses in rabbits. The areas under each curve (AUC), indicted in the figure, that quantify these responses vary by as much as >5 fold. Values are the average of 2; all were within 11% of each other.
FIGS. 11A and 11B illustrates the effect of various concentrations of PS on corneal sensitivity determined by the corneal touch threshold (CTT) assay. The CTT score is expressed as length of filament. Measurements were performed at the indicated time points after a single application of PS as an eye drop. Rabbits with normal or dry eyes were studied (n=6 eyes per group). Dry eyes were induced by Concanavalin A injection as described in the text. The % PS content in each study is shown. The numbers in parentheses indicate the corresponding value of the area under the curve. Values=mean±SEM.
FIGS. 12A and 12B illustrate the effect of various drugs on corneal sensitivity determined by the corneal touch threshold (CTT) assay described herein. Each drug was used in its commercially available form; one eye drop of each was applied. The numbers in parentheses indicate the corresponding value of the area under the curve. Values=mean±SEM.
The analgesic effect of PS was examined on the surface of the eye by determining the corneal touch threshold (CTT) using the Luneau Cochet-Bonnet Aesthesiometer (Western Ophthalmics, Lynwood, Wash.) an adjustable nylon monofilament with a defined diameter, which is applied in different lengths to the center of the cornea.
In this embodiment, the composition of the PS preparation was: 0.5% PS, 18% (2-hydroxypropyl)-β-cyclodextrin (HP-β-CD), 1-4% Tween 80. Preparation Method: HP-β-CD was dissolved in purified water maintained in a 50° C. water bath. PS was added into this solution and kept at 50° C. overnight with stirring at 500 rpm until PS was fully dissolved. Tween 80 was added into the PS HP-β-CD solution, which was then centrifuged at 3000 rpm for 10 min to remove undissolved particles. The supernatant was collected and pH was adjusted to the desired value using a NaOH solution. The analgesic effect of PS was examined as above.
The effect of PS and other compounds on corneal sensitivity was determined in rabbits with normal or dry eyes using the CTT assay as above; DED was induced by Concanavalin A as previously described. The CTT score, expressed as filament length in mm, of normal eyes was 5.56±0.11 mm (mean±SEM for this and subsequent values) and in dry eyes 4.17±0.12 mm; the difference between the two is statistically significant (p<0.0001).

[4] = system: PGE2; test: PGE2 levels in tears and cornea of rabbits (ELISA); format: in vivo; conditions: rabbits with Con A-induced DED, administered once topically, 1 h later
Protocol: FIGS. 9A and 9B illustrate that PS preserves the levels of PGE2 in tears and the cornea. In FIG. 9A, PGE2 levels were determined by ELISA in tears collected on day 7 from naïve rabbits and rabbits with Con A-induced DED treated for 1 week with vehicle or PS. In FIG. 9B, PGE2 levels were further examined. Upper panel: PGE2 levels in the tears of naïve rabbits and rabbits with Con A-induced DED treated for 1 h with PS or ketorolac as in Methods. Lower panel: PGE2 levels in the corneal tissue of naïve rabbits and rabbits with Con A-induced DED treated for 1 week with vehicle or PS or ketorolac or diclofenac. n=8 eyes/group. Values=mean±SEM.
It was determined that the levels of PGE2 in rabbit tears in three groups of rabbits, naïve and those with Con A-induced DED that were treated for 1 week either with PS or vehicle.
In an acute experiment, administered once topically to the eyes of four groups of rabbits with Con A-induced DED was one of the following: vehicle, PS, ketorolac or diclofenac; the latter two are NSAIDs used for the treatment of ocular inflammation and pain. It was determined that the levels of PGE2 in the cornea of these rabbits obtained 1 h later as well as in the corneas of naïve rabbits.

[5] = system: Con A-induced dry eye; test: Con A-induced dry eye disease (DED) in rabbits: TBUT, tear osmolarity, STT, tear lactoferrin; format: in vivo, New Zealand White (NZW) rabbits; conditions: 1 week of treatment, comparison with ophthalmic NSAIDs (FIG. 5)
Protocol: Con A was injected under ultrasound guidance into all the lacrimal glands and the success of the injection was verified by a post-injection ultrasound image (see FIG. 1 and FIG. 2). […] This variation explains why the blind injections recommended in the original method are often unsuccessful. This was confirmed by mixing the Con A solution with methylene blue and tracking its course after injection. In about ⅓ of the cases, Con A ended up outside the gland.
Four parameters of efficacy were evaluated instead of the usual one or two. They include (a) the tear break up time (TBUT), determined using 0.2% fluorescein over the eye and recording the time taken to develop black dots, lines or obvious disruption of the fluorescein film; (b) tear osmolarity, measured using TearLab Osmolarity Test and following the manufacturer's instructions (TearLab Corp., San Diego, Calif.); (3) Schirmer tear test (STT), determined using Schirmer strips (EagleVision, Denville, N.J.) inserted between the cornea and the palpebral conjunctiva at the mid-point of the lower lid and measuring the length of moistened strip at 5 min; and (4) tear lactoferrin levels measured by ELISA kit (MyBiosource, San Diego, Calif.) following the instructions of the manufacturer. All four have been used in clinical practice and correlate with the clinical activity of the disease. The STT is the least reliable and, as result, it is clinically used less than half as frequently as TBUT.
The injections of Con A to the lacrimal glands were repeated weekly as needed. When longer than a 1-week periods of study are needed, repeat injections prolong dry eye for at least 3 weeks, making the originally acute model chronic.
PS Suppresses Con A—Induced Dry Eye in Rabbits. The effect of PS on dry eye was determined in New Zealand White (NZW) rabbits, 2-3 kg (Charles River Labs, Waltham, Mass.). These rabbits were housed singly in rooms with strict temperature (70±5° F.) and humidity (45±5%) control and acclimated for at least 2 weeks prior to induction of dry eye by injection of Con A as above. NZW rabbits with Con A-induced dry eye (three sets of injections) were treated with PS formulated as nanoparticles and administered topically as eye drops 3×/day for 21 days, starting on the day of Con A injection. […] Similar results were obtained on days 5 and 14 (data not shown). […]
The efficacy of lower concentrations of PS. The efficacy of lower concentrations of PS, 0.1% and 0.2% in DED, was also evaluated. The same animal model (rabbits with Concanavalin A-induced DED) was used. The same methodology described herein was followed, except that PS was administered as two eye drops per eye (˜25 μL each) four times a day. PS was formulated in: 10% (2-hydroxypropyl)-β-cyclodextrin, 4% Tween 80, 2.5% Vitamin E TPGS, 1.4% polyvinyl alcohol (13,000-26,000 molecular weight), 0.001% polyquad, as described herein. The Table below summarizes the corresponding findings: […]

[6] = system: MMPs; test: MMP activity in the cornea of rabbits; format: in vivo; conditions: naïve rabbits, topical, 1 h
Protocol: FIGS. 8A and 8B illustrate that PS suppresses the levels and activity of MMPs. In FIG. 8A, the human conjunctival cells were treated with PS at 1×IC50 (TNF-α was added to the culture medium at a concentration of 10 ng/ml 2 h after PS. The levels of MMP-1 in the culture medium were determined by ELISA as in Methods (n=3). Values=mean±SEM. In FIG. 8B, two groups of rabbits with Con A-induced DED were treated with vehicle or PS for 1 week as in Methods. Naïve rabbits served as controls. MMP-9 levels in the ILG (top) and the aqueous humor (middle) were determined by ELISA. MMP activity was determined in the cornea of naïve and PS- or ketorolac-treated rabbits with Con A-induced DED as previously. n=8 eyes/group. Values=mean±SEM.
In an acute experiment, naïve rabbits were treated with either PS or ketorolac (both administered topically) for 1 h and determined the activity of MMP in the cornea. This assay determines the activity of MMPs collectively in a given tissue.

| Compound | Cmax, conjunctiva [1] [nM] | Cmax, cornea [1] [nM] | Cmax, aqueous humor [2] [μm] | Cmax, conjunctiva [2] [μm] | Cmax, cornea [2] [μm] | effect on corneal sensitivity (CTT), dry eyes [3] | effect on corneal sensitivity (CTT), normal eyes [3] | further results |
| --- | --- | --- | --- | --- | --- | --- | --- | --- |
| CSc1ccc(/C=C2/C(C)=C(CC(=O)O)c3cc(F)ccc32)cc1 [sulindac sulfide] | 0 | 600 | 2.0 | 0.0 | 0.0 |  |  |  |
| CC1=C(CC(=O)O)c2cc(F)ccc2/C1=C\c1ccc([S+](C)[O-])cc1 (centres unmarked) [sulindac, reference compound] | 3800 | 3600 | 1.0 | 4.2 | 8.7 |  |  |  |
| CS(=O)(=O)c1cccc(C[C@H](NC(=O)c2c(Cl)cc3c(c2Cl)CCN(C(=O)c2ccc4ccoc4c2)C3)C(=O)O)c1 [Lifitegrast, lifitegrast, reference compound] |  |  |  |  |  | lack any ocular analgesic effect | lack any ocular analgesic effect |  |
| CC1=C(CC(=O)O)c2cc(F)ccc2/C1=C\c1ccc(S(C)(=O)=O)cc1 [sulindac sulfone] | 1600 | 1300 | 0.0 | 0.8 | 4.0 |  |  | AUC0-16h, conjunctiva [1]: 7.3 µM·h; AUC0-16h, cornea [1]: 10 µM·h; Tmax, cornea [1]: 4 h; AUC0-16h, conjunctiva [2]: 3.2 µM·h; AUC0-16h, cornea [2]: 24.4 µM·h; Tmax, aqueous humor [2]: 0.0 h; Tmax, conjunctiva [2]: 2.0 h; Tmax, cornea [2]: 4.0 h |
| O=C(O)Cc1ccccc1Nc1c(Cl)cccc1Cl [diclofenac, reference compound] |  |  |  |  |  |  |  | PGE2 levels in the cornea [4]: suppressed nearly completely; STT [5]: failed to improve; TBUT [5]: failed to improve; osmolarity [5]: failed to improve |
| Nc1c(CC(=O)O)cccc1C(=O)c1ccc(Br)cc1 [bromfenac, reference compound] |  |  |  |  |  | no analgesic effect | display analgesic efficacy |  |
| O=C(c1ccccc1)c1ccc2n1CCC2C(=O)O (centres unmarked) [ketorolac, reference compound] |  |  |  |  |  | no analgesic effect | display analgesic efficacy | PGE2 levels in the cornea [4]: suppressed nearly completely; STT [5]: failed to improve; TBUT [5]: failed to improve; osmolarity [5]: failed to improve; suppression of the activity of MMPs in the cornea [6]: failed to affect |
